Biological target: T1, PPARG (peroxisome proliferator activated receptor-gamma), GST-PPARG-LBD (Homo sapiens, UniProt P37231)
T1 construct: 15 μL of 5 nM GST-PPARG-LBD and 5 nM Tb-GST-antibody were added; purchased Invitrogen PV4894
T1 sequence (P37231 238-503 limits assumed): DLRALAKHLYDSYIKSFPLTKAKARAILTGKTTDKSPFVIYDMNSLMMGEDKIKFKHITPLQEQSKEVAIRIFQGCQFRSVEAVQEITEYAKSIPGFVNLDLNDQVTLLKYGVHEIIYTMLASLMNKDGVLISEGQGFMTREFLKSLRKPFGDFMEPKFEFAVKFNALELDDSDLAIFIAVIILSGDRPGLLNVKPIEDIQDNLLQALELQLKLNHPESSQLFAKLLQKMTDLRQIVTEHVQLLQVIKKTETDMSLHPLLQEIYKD
Experiment: LanthaScreen TR-FRET PPARG Competitive Binding Assay
Set-up: key: “+” indicates the degree of the binding activity, and as the number of “+” increases, the binding activity is stronger; ++: “+” indicates the degree of the binding activity, and as the number of “+” increases, the binding activity is stronger; +++: “+” indicates the degree of the binding activity, and as the number of “+” increases, the binding activity is stronger; ++++: “+” indicates the degree of the binding activity, and as the number of “+” increases, the binding activity is stronger
Settings: degree of binding activity
Procedure, shortened: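 GST-tagged human PPARG LBD in a TR-FRET competitive binding kit, 1 h at room temperature. Read-out is the 518/488 nm emission ratio (340 nm excitation); activity = 100% − compound ratio/vehicle ratio, compared with rosiglitazone.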

Row | SMILES | Binding assay (1 μLM)
1 | C[C@H](NC(=O)c1ccc2c(c1)OCCN2Cc1ccc(-c2ccccc2C(=O)O)cc1)c1cccc(F)c1 [Example 84, (S)-4′-((7-((1-(3-fluorophenyl)ethyl)carbamoyl)-2H-benzo[b][1,4]oxazine-4(3H)-yl)methyl)-[1,1′-biphenyl]-2-carboxylic acid] | ++
2 | C[C@H](NC(=O)c1ccc2c(c1)OCCN2Cc1ccc(-c2ccccc2C(=O)O)cc1)c1cccc(OC(F)(F)F)c1 [Example 85, (S)-4′-((7-((1-(3-(trifluoromethoxy)phenyl)ethyl)carbamoyl)-2H-benzo[b][1,4]oxazine-4(3H)-yl)methyl)-[1,1′-biphenyl]-2-carboxylic acid] | +++
3 | C[C@H](NC(=O)c1ccc2c(c1)OCCN2Cc1ccc(-c2ccccc2C(=O)O)cc1)c1cccc(C(F)(F)F)c1 [Example 86, (S)-4′-((7-((1-(3-(trifluoromethyl)phenyl)ethyl)carbamoyl)-2H-benzo[b][1,4]oxazine-4(3H)-yl)methyl)-[1,1′-biphenyl]-2-carboxylic acid] | +++
4 | C[C@H](NC(=O)c1ccc2c(c1)OCCN2Cc1ccc(-c2ccccc2C(=O)O)cc1)c1ccc2ccccc2c1 [Example 87, (S)-4′-((7-((1-(naphthalene-2-yl)ethyl)carbamoyl)-2H-benzo[b][1,4]oxazine-4(3H)-yl)methyl)-[1,1′-biphenyl]-2-carboxylic acid] | ++++
5 | O=C(NCc1ccccn1)c1ccc2c(c1)OCCN2Cc1ccc(-c2ccccc2C(=O)O)cc1 [Example 88, 4′-((7-((pyridine-2-ylmethyl)carbamoyl)-2H-benzo[b][1,4]oxazine-4(3H)-yl)methyl)-[1,1′-biphenyl]-2-carboxylic acid] | +
6 | O=C(NCc1cccnc1)c1ccc2c(c1)OCCN2Cc1ccc(-c2ccccc2C(=O)O)cc1 [Example 89, 4′-((7-((pyridine-3-ylmethyl)carbamoyl)-2H-benzo[b][1,4]oxazine-4(3H)-yl)methyl)-[1,1′-biphenyl]-2-carboxylic acid] | +
7 | O=C(NCc1ccncc1)c1ccc2c(c1)OCCN2Cc1ccc(-c2ccccc2C(=O)O)cc1 [Example 90, 4′-((7-((pyridine-4-ylmethyl)carbamoyl)-2H-benzo[b][1,4]oxazine-4(3H)-yl)methyl)-[1,1′-biphenyl]-2-carboxylic acid] | +
8 | O=C(NCc1ccccc1)c1ccc2c(c1)OCCN2Cc1ccc(-c2ccccc2C(=O)O)cc1 [Example 91, 4′-((7-(benzylcarbamoyl)-2H-benzo[b][1,4]oxazine-4(3H)-yl)methyl)-[1,1′-biphenyl]-2-carboxylic acid] | +++
9 | O=C(NCc1ccccc1Br)c1ccc2c(c1)OCCN2Cc1ccc(-c2ccccc2C(=O)O)cc1 [Example 92, 4′-((7-((2-bromobenzyl)carbamoyl)-2H-benzo[b][1,4]oxazine-4(3H)-yl)methyl)-[1,1′-biphenyl]-2-carboxylic acid] | +++
10 | O=C(NCc1ccc2c(c1)OCCO2)c1ccc2c(c1)OCCN2Cc1ccc(-c2ccccc2C(=O)O)cc1 [Example 93, 4′-((7-(((2,3-dihydrobenzo[b][1,4]dioxin-6-yl)methyl)carbamoyl)-2H-benzo[b][1,4]oxazine-4(3H)-yl)methyl)-[1,1′-biphenyl]-2-carboxylic acid] | ++
11 | C[C@@H](NC(=O)c1ccc2c(c1)OCCN2Cc1ccc(-c2ccccc2C(N)=O)cc1)c1ccc(C#N)cc1 [Example 94, (R)-4-((2′-carbamoyl-[1,1′-biphenyl]-4-yl)methyl)-N-(1-(4-cyanophenyl)ethyl)-3,4-dihydro-2H-benzo[b][1,4]oxazine-7-carboxamide] | ++
12 | C[C@H](NC(=O)c1ccc2c(c1)OCCN2Cc1ccc(-c2ccccc2C(N)=O)cc1)c1cccc(F)c1 [Example 95, (S)-4-((2′-carbamoyl-[1,1′-biphenyl]-4-yl)methyl)-N-(1-(3-fluorophenyl)ethyl)-3,4-dihydro-2H-benzo[b][1,4]oxazine-7-carboxamide] | +++
13 | NC(=O)c1ccccc1-c1ccc(CN2CCOc3cc(C(=O)NCc4cccnc4)ccc32)cc1 [Example 97, 4-((2′-carbamoyl-[1,1′-biphenyl]-4-yl)methyl)-N-(pyridine-3-ylmethyl)-3,4-dihydro-2H-benzo[b][1,4]oxazine-7-carboxamide] | +
14 | NC(=O)c1ccccc1-c1ccc(CN2CCOc3cc(C(=O)NCc4ccncc4)ccc32)cc1 [Example 98, 4-((2′-carbamoyl-[1,1′-biphonyl]-4-yl)methyl)-N-(pyridine-4-ylmethyl)-3,4-dihydro-2H-benzo[b][1,4]oxazine-7-carboxamide] | +
15 | C[C@H](NC(=O)c1ccc2c(c1)OCCN2Cc1ccc(-c2ccccc2C(N)=O)cc1)c1ccc(SC(F)(F)F)cc1 [Example 99, (S)-4-((2′-carbamoyl-[1,1′-biphenyl]-4-yl)methyl)-N-(1-(4-((trifluoromethyl)thio)phenyl)ethyl)-3,4-dihydro-2H-benzo[b][1,4]oxazine-7-carboxamide] | +++
16 | NC(=O)c1ccccc1-c1ccc(CN2CCOc3cc(C(=O)NCc4ccccc4)ccc32)cc1 [Example 100, N-benzyl-4-((2′-carbamoyl-[1,1′-biphenyl]-4-yl)methyl)-3,4-dihydro-2H-benzo[b][1,4]oxazine-7-carboxamide] | ++
17 | NC(=O)c1ccccc1-c1ccc(CN2CCOc3cc(C(=O)NCc4ccccc4Br)ccc32)cc1 [Example 101, N-(2-bromobenzyl)-4-((2′-carbamoyl-[1,1′-biphenyl]-4-yl)methyl)-3,4-dihydro-2H-benzo[b][1,4]oxazine-7-carboxamide] | ++
18 | NC(=O)c1ccccc1-c1ccc(CN2CCOc3cc(C(=O)NCc4ccc5c(c4)OCCO5)ccc32)cc1 [Example 102, 4-((2′-carbamoyl-[1,1′-biphenyl]-4-yl)methyl)-N-((2,3-dihydrobenzo[b][1,4]dioxin-6-yl)methyl)-3,4-dihydro-2H-benzo[b][1,4]oxazine-7-carboxamide] | +
19 | C[C@H](NC(=O)c1ccc2c(c1)OCCN2Cc1ccc(-c2ccccc2C(=O)[O-])cc1)c1ccccc1.[Na+] [Example 103, sodium (S)-4′-((7-((1-phenylethyl)carbamoyl)-2H-benzo[b][1,4]oxazine-4(3H)-yl)methyl)-[1,1′-biphenyl]-2-carboxylate] | ++
20 | C[C@H](NC(=O)c1ccc2c(c1)OCCN2Cc1ccc(-c2ccccc2C(=O)[O-])cc1)c1ccc([N+](=O)[O-])cc1.[Na+] [Example 105, sodium (S)-4′-((7-((1-(4-nitrophenyl)ethyl)carbamoyl)-2-benzo[b][1,4]oxazine-4(3H)-yl)methyl)-[1,1′-biphenyl]-2-carboxylate] | +
21 | C[C@H](NC(=O)c1ccc2c(c1)CCCN2Cc1ccc(-c2ccccc2C(=O)O)cc1F)c1ccccc1 [Example 106] | ++++
22 | C[C@H](NC(=O)c1ccc2c(c1)CCCN2Cc1ccc(-c2ccccc2C(N)=O)cc1F)c1ccccc1 [Example 107, (S)-1-((2′-carbamoyl-3-fluoro-[1,1′-biphenyl]-4-yl)methyl)-N-(1-phenylethyl)-1,2,3,4-tetrahydroquinoline-6-carboxamide] | +++
23 | C[C@H](NC(=O)c1ccc2c(c1)CCCN2Cc1ccc(-c2ccccc2C(=O)O)cc1F)c1ccc2ccccc2c1 [Example 108, (S)-3′-fluoro-4′-((6-((1-(naphthalene-2-yl)ethyl)carbamoyl)-3,4-dihydroquinoline-1(28)-yl)methyl)-[1,1′-biphenyl]-2-carboxylic acid] | ++++
24 | C[C@H](NC(=O)c1ccc2c(c1)CCCN2Cc1ccc(-c2ccccc2C(=O)O)cc1F)c1ccc([N+](=O)[O-])cc1 [Example 109, (S)-3′-fluoro-4′-((6-((1-(4-nitrophenyl)ethyl)carbamoyl)-3,4-dihydroquinoline-1(2H)-yl)methyl)-[1,1′-biphenyl]-2-caboxylic acid] | +++
25 | Cc1ccc([C@H](C)NC(=O)c2ccc3c(c2)CCCN3Cc2ccc(-c3ccccc3C(=O)O)cc2F)cc1F [Example 111, (S)-3′-fluoro-4′-((6-((1-(3-fluoro-4-methylphenyl)ethyl)carbamoyl)-3,4-dihydroquinoline-1(2H)-yl)methyl)-[1,1′-biphenyl]-2-caboxylic acid] | ++++
26 | C[C@H](NC(=O)c1ccc2c(c1)CCCN2Cc1ccc(-c2ccccc2C(N)=O)cc1F)c1ccc(C#N)cc1 [Example 112, (S)-1-((2′-carbamoyl-3-fluoro-[1,1′-biphenyl]-4-yl)methyl)-N-(1-(4-cyanophenyl)ethyl)-1,2,3,4-tetrahydroquinoline-6-carboxamide] | +++

— US20160355483A1, “COMPOUND BINDING TO PPARG BUT NOT ACTING AS PROMOTER AND PHARMACEUTICAL COMPOSITION FOR TREATING PPARG-RELATED DISEASES CONTAINING SAME AS ACTIVE INGREDIENT” (Hyundai Pharm Co., Ltd., priority 2014, published 2016)
